Legend:
Breast MCF-7 = experiment: human cancer cell growth inhibition, sulforhodamine B assay; format: cell-based; conditions: Table I; 48 hours
Method: (§1) Inhibition of human cancer cell growth was assessed using the National Cancer Institute's standard sulforhodamine B assay. After 48 hours, the plates were fixed with trichloracetic acid, stained with sulforhodamine B and read with an automated microplate reader. […] Inhibition of the mouse leukemia P388 cells was assessed in a 10% horse serum/Fisher medium soution for 24 hours, followed by a 48 hour incubation with serial dilutions of the compounds. Cell growth inhibition (ED50) was then calculated using a Z1 Becleman/Coulter particle counter.

CNS SF268 = experiment: as above; format: cell-based; conditions: Table I; 48 hours
Method: as §1

Colon KM20L2 = experiment: as above; format: cell-based; conditions: Table I; 48 hours
Method: as §1

Lung-NSC NCI-H460 = experiment: as above; format: cell-based; conditions: Table I; 48 hours
Method: as §1

Pancreas BXPC-3 = experiment: as above; format: cell-based; conditions: Table I; 48 hours
Method: as §1

Prostate DU-145 = experiment: as above; format: cell-based; conditions: Table I; 48 hours
Method: as §1

Candida albicans = experiment: reference broth microdilution susceptibility assay; format: cell-based; conditions: Table III
From the text: (§2) The halocombstatins of the present invention appear to also have antimicrobial properties. More specifically, they appear to have antifungal and/or antibacterial properties. Antimicrobial evaluation of the halocombstatins involved susceptibility testing performed by the reference broth microdilution assay. The antimicrobial activities of the halocombstatins were very similar, targeting Gram-positive bacteria and the pathogenic fungi Cryptococcus neoformans, and results are shown in Table III.
(§3) (See Pettit, G. R., et al., Antineoplastic Agents 463. Synthesis of Combretastatin A-3 Diphosphates, Anticancer Drug Design 2000, 15, 397-404.) To determine the antimicrobial activity of the present compounds, susceptibility testing was performed by the reference broth microdilution assay. (See National Committee for Clinical Laboratory Standards. Methods for Dilution Antimicrobial Susceptibility Tests for Bacteria that Grow Aerobically. Approved Standard M7-A5. Wayne, P A: NCCLS, 2000. National Committee for Clinical Laboratory Standards. Reference Method for Broth Dilution Antifungal Susceptibility Testing of Yeasts. Aproved Standard M27-A. Wayne, P A: NCCLS, 1997.) The antimicrobial activities of the halocombretastatins of the present invention were very similar, targeting Gram-positive bacteria and Cryptococcus neoformans. This is illustrated in further detail in Table III. Thus, several of the novel compounds of the present invention appear to have potential as antimicrobial agents, such as antifingals and antibacterials.

Cryptococcus neoformans = experiment: reference broth microdilution susceptibility assay; format: cell-based; conditions: Table III
From the text: as §2, §3

Enterobacter cloacae = experiment: reference broth microdilution susceptibility assay; format: cell-based; conditions: Table III
From the text: as §2, §3

Enterococcus faecalis = experiment: reference broth microdilution susceptibility assay; format: cell-based; conditions: Table III
From the text: as §2, §3

Escherichia coli = experiment: reference broth microdilution susceptibility assay; format: cell-based; conditions: Table III
From the text: as §2, §3

Micrococcus luteus = experiment: reference broth microdilution susceptibility assay; format: cell-based; conditions: Table III
From the text: as §2, §3

Neisseria gonorrhoeae = experiment: reference broth microdilution susceptibility assay; format: cell-based; conditions: Table III
From the text: as §2, §3

Staphylococcus aureus = experiment: reference broth microdilution susceptibility assay; format: cell-based; conditions: Table III
From the text: as §2, §3

[1] = system: Stenotrophomonas maltophilia; experiment: reference broth microdilution susceptibility assay; format: cell-based; conditions: Table III
From the text: as §2, §3

Streptococcus pneumoniae = experiment: reference broth microdilution susceptibility assay; format: cell-based; conditions: Table III
From the text: as §2, §3

[2] = system: human umbilical vein endothelial cells (HUVEC); experiment: HUVEC growth inhibition, sulforhodamine B assay; format: cell-based; conditions: for Relative % Growth: HUVEC; for Human Umbilical Vein Endothelial Cell (HUVEC) Inhibition Values (GI50): Table V
Method: (§4) In vitro Matrigel antiangiogenesis assays were implemented according to the Developmental Therapeutics Program NCI/NIH protocols known to one of skill in the art. Matrigel, a basement membrane matrix, was obtained from BD Biosciences. Growth inhibition and cord formation assays were Conducted using human umbilical vein endothelial cells obtained from GlycoTeCh. HUVEC cells were grown in EGM-2 medium.
The standard sulforhodamine B assay (see Cancer Cell Line Procedures above) was used to evaluate results using HUVEC cells. IC50 or ED50 (drug concentration causing 50% inhibition) was calculated from the plotted data.

[3] = system: human umbilical vein endothelial cells (HUVEC); experiment: Matrigel cord formation assay; format: cell-based; parameters: key to Lengths of Cords: −: No Cords; +: Small; ++: ˜50% of Control; +++: Same as Control; conditions: 24 hours, compared to untreated controls
Method: as §4
(§5) An aliquot of sixty microliters was placed in each well of an ice-cold 96-well plate. The plates were then left for 15 minutes at room temperature, then incubated for 30 minutes at 37° C. to permit the matrigel to polymerize. Meanwhile, HUVEC cells were harvested and diluted to a concentration of 2×10^5 cells/ml. A solution of 100 μL containing the compounds to be tested was added next. After 24 hours incubation, pictures were taken for each concentration using an inverted Nikon Diaphot microscope and D100 digital camera. Drug effect was assessed, compared to untreated controls, by measuring the length of cords formed and number ofjunctions.

[4] = system: human umbilical vein endothelial cells (HUVEC); experiment: Matrigel cord formation assay; format: cell-based; parameters: key: −: No Junctions; +: Few; ++: ˜50% of Control; +++: Same as Control; conditions: 24 hours, compared to untreated controls
Method: as §4, §5

| Compound | Human cancer cell line inhibition (GI50) Breast adn MCF-7 (Breast MCF-7) [µg/mL] | Human cancer cell line inhibition (GI50) CNS SF268 (CNS SF268) [µg/mL] | Human cancer cell line inhibition (GI50) Colon KM20L2 (Colon KM20L2) [µg/mL] | Human cancer cell line inhibition (GI50) Lung-NSC NCI-H460 (Lung-NSC NCI-H460) [µg/mL] | Human cancer cell line inhibition (GI50) Pancreas-a BXPC-3 (Pancreas BXPC-3) [µg/mL] | Human cancer cell line inhibition (GI50) Prostate DU-145 (Prostate DU-145) [µg/mL] | Range of minimum inhibitory concentration, Candida albicans (Candida albicans) | Range of minimum inhibitory concentration, Cryptococcus neoformans (Cryptococcus neoformans) | Range of minimum inhibitory concentration, Enterobacter cloacae (Enterobacter cloacae) | Range of minimum inhibitory concentration, Enterococcus faecalis (Enterococcus faecalis) | Range of minimum inhibitory concentration, Escherichia coli (Escherichia coli) | Range of minimum inhibitory concentration, Micrococcus luteus (Micrococcus luteus) | Range of minimum inhibitory concentration, Neisseria gonorrhoeae (Neisseria gonorrhoeae) | Range of minimum inhibitory concentration, Staphylococcus aureus (Staphylococcus aureus) | Range of minimum inhibitory concentration, Stenotrophomonas maltophilia [1] | Range of minimum inhibitory concentration, Streptococcus pneumoniae (Streptococcus pneumoniae) | Relative % Growth ([2]; 0.0001 μg/ml) [%] | Relative % Growth ([2]; 0.01 μg/ml) [%] | Relative % Growth ([2]; 0.1 μg/ml) [%] | Human Umbilical Vein Endothelial Cell (HUVEC) Inhibition Values (GI50) [2] [µg/mL] | also measured |
| --- | --- | --- | --- | --- | --- | --- | --- | --- | --- | --- | --- | --- | --- | --- | --- | --- | --- | --- | --- | --- | --- |
| COc1ccc(/C=C\c2cc(I)c(OC)c(OC)c2)cc1C(C)=O |  |  |  |  |  |  |  |  |  |  |  |  |  |  |  |  |  |  |  |  | melting point: 103 to 104 °C |
| 3-Brombo-4,4′,5-trimethoxy-3′-hydroxy-E-stilbene [Compound 13b] | 0.14 | 0.18 | 1.2 | 0.15 | 1.6 | 0.13 | * (no inhibition at 64 μg/ml) | * (no inhibition at 64 μg/ml) | * (no inhibition at 64 μg/ml) | * (no inhibition at 64 μg/ml) | * (no inhibition at 64 μg/ml) | * (no inhibition at 64 μg/ml) | * (no inhibition at 64 μg/ml) | * (no inhibition at 64 μg/ml) | * (no inhibition at 64 μg/ml) | * (no inhibition at 64 μg/ml) |  |  |  |  |  |
| 3-Fluoro-4,4′,5-trimethoy-3′-hydroxy-E-stilhene [Compound 11b] | 0.051 | 0.35 | 0.53 | 0.18 | 2.2 | 0.18 | * (no inhibition at 64 μg/ml) | 64 µg/mL | * (no inhibition at 64 μg/ml) | * (no inhibition at 64 μg/ml) | * (no inhibition at 64 μg/ml) | 16 to 32 µg/mL | 8 to 16 µg/mL | 32 to 64 µg/mL | * (no inhibition at 64 μg/ml) | 64 µg/mL |  |  |  |  |  |
| Sodium 3,5-diiodo-4,4′dimethoxy-z-stilbene 3′-O-phosphate [Compound T (Table Ia)] |  |  |  |  |  |  |  |  |  |  |  |  |  |  |  |  | >100 | >100 | −2 | 0.051 | Relative % Growth ([2]; 1 μg/ml): −7%; Lengths of Cords ([3]; 0.1 μg/ml): +; Lengths of Cords ([3]; 1 μg/ml): −; Number of junctions ([4]; 1 μg/ml): − |
| Sodium 3-fluoro-4,4′,5-trimethoxy-Z-stilbene 3′-O-phosphate [Compound 18a] | 0.0044 | 0.0051 | 1.5 | 0.0094 | 0.59 | 0.0036 | * (no inhibition at 64 μg/ml) | * (no inhibition at 64 μg/ml) | * (no inhibition at 64 μg/ml) | * (no inhibition at 64 μg/ml) | * (no inhibition at 64 μg/ml) | * (no inhibition at 64 μg/ml) | 16 µg/mL | * (no inhibition at 64 μg/ml) | * (no inhibition at 64 μg/ml) | * (no inhibition at 64 μg/ml) |  |  |  |  |  |
| Sodium 3-iodo-4,4′,5-trimethoxy-z-stilbene 3′-O-phosphate [Compound 20a] | 0.012 | 0.0052 | 0.37 | 0.0031 | 0.47 | 0.0078 | * (no inhibition at 64 μg/ml) | * (no inhibition at 64 μg/ml) | * (no inhibition at 64 μg/ml) | * (no inhibition at 64 μg/ml) | * (no inhibition at 64 μg/ml) | * (no inhibition at 64 μg/ml) | 16 to 32 µg/mL | * (no inhibition at 64 μg/ml) | * (no inhibition at 64 μg/ml) | * (no inhibition at 64 μg/ml) | 104 | 14 | 7 | 0.00035 | Relative % Growth ([2]; 0.001 μg/ml): 5%; Lengths of Cords ([3]; 0.001 μg/ml): +; Lengths of Cords ([3]; 0.01 μg/ml): −; Lengths of Cords ([3]; 0.1 μg/ml): −; Number of junctions ([4]; 0.001 μg/ml): +; Number of junctions ([4]; 0.01 μg/ml): −; Number of junctions ([4]; 0.1 μg/ml): − |

— US20070167412A1, “HALOCOMBSTATINS AND METHODS OF SYNTHESIS THEREOF” (ARIZONA BOARD OF REGENTS, priority 2003, published 2007)
